Results on 23 molecules are retold here after US10017509B2, “Macrocylic pyrimidine derivatives” (Janssen Pharmaceutica NV, priority 2014, dated 2018).

Test [1] concerns the target T1, EF2K (Homo sapiens, UniProt O00418).
T1 construct: host or cells: LN-229 cell lysate
T1 sequence (O00418 1-725): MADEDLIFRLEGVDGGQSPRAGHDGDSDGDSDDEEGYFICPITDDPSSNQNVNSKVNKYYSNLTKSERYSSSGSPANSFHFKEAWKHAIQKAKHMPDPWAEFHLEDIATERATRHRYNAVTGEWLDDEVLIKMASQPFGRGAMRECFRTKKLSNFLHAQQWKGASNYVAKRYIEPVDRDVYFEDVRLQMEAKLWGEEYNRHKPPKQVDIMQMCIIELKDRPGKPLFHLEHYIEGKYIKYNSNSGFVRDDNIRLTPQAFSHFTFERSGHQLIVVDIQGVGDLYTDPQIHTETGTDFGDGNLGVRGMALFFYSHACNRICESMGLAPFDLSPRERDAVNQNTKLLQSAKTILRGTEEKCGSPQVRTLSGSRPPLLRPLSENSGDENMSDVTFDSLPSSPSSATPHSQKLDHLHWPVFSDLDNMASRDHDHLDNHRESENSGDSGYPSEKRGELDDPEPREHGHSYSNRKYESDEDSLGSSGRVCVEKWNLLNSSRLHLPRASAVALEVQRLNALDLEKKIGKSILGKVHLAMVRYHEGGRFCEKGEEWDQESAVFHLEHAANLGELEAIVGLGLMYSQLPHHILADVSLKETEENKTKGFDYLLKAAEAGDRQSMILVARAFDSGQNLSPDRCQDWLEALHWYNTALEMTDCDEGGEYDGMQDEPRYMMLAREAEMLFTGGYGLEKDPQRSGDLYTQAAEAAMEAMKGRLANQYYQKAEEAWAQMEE
Description: Biochemical EF2K lysate-based kinase assay (AlphaLISA p-eEF2 Thr56). The settings on record: pIC50 = -log IC50 (M), read-out: eEF2K_C_alphalisa pIC50 (converted). From the text: Biochemical EF2K Lysate-Based Kinase Assay
LN-229 cells were purchased from ATCC (CRL-2611); these are glioblastoma cells. Cell lysates from LN229 were used in this kinase assay to provide both the kinase and the substrate (EF2). The AlphaLISA p-eEF2 (Thr56) detection assay was developed using a sandwich assay format with two specific antibodies recognizing different epitopes of the target, including one antibody against the phosphorylation site of interest. One anti-eEF2 antibody was conjugated onto AlphaLISA Acceptor beads, while the second antibody was biotinylated and captured by streptavidin coated Donor beads.
Compound was mixed with LN-229 cell lysates in the presence of a kinase buffer (e.g. HEPES) at a pH of 6.6, containing 10 mM Mg^2+ (e.g. magnesium acetate) and 10 mM adenosine-tri-phosphate (ATP) and incubated at room temperature for 15 minutes. The kinase reaction was stopped with excess ethylenediaminetetraacetic acid disodium salt and the biotinylated-anti phospho eEF2 antibody (3 nM) was added for 1 hour. Then the anti-EF2 acceptor beads (10 μg/ml) as well as the streptavidin coated donor beads (20 μg/ml) were added for 1 hour, and the AlphaLISA signal was measured in an Envision instrument once, left overnight, and measured again for the final read.
(§1) (pIC50 is −log IC50 where IC50 represents the concentration expressed in M at which the test compound gives 50% inhibition)
A general note: Alpha assays give light when donor and acceptor beads are brought close together.

Test [2] concerns the target Vps34 (PIK3C3 lipid kinase) (Homo sapiens, UniProt Q8NEB9). Description: Biochemical Vps34 lipid kinase assay (ADP-Glo). The settings on record: for remaining activity at 1 µM: 1 h, read-out: VPS34_1microM_% of cntrl; for IC50: serial half-log dilution 10 μM to 0.3 nM, pIC50 = -log IC50 (M). As to the method: Biochemical Vps34 Lipid Kinase Assay
A non-radiometric kinase assay (ADP-Glo™ Assay, Promega, Madison, Wi, USA) was used for measuring the kinase activity of the PIK3C3 lipid kinase. All kinase assays were performed in 96-well half-area microtiter plates in a 25 μl reaction volume. The reaction cocktail was pipetted in 3 steps in the following order: • 10 μl of ATP solution (in assay buffer, see below) • 5 μl of test sample in 5% DMSO 10 μl of enzyme/substrate mixture
All lipid kinase assays contained 50 mM HEPES (4-(2-hydroxyethyl)-1-piperazineethanesulfonic acid)-NaOH, pH 7.5, 1 mM EGTA ((ethylene glycol tetraacetic acid), 100 mM NaCl, 0.03% CHAPS (3-[(3-Cholamidopropyl)dimethylammonio]-1-propanesulfonate), 2 mM DTT (Dithiothreitol), 20 μM ATP (corresponding to the apparent ATP-Km), kinase (7.6 nM) and substrate (50 μM). The assay for PIK3C3 additionally contained 3 mM MnCl2.
The reaction cocktails were incubated at 30° C. for 60 minutes. The reaction was stopped with 25 μl ADP-Go™ reagent per well. Plates were incubated for 40 minutes at room temperature, followed by addition of 50 μl kinase detection reagent per well and incubation for 60 minutes at room temperature. Signal was determined with a microplate luminescence reader (Victor, Perkin Elmer). The assay was either performed using a single dose of compound (1 μM final concentration in the assay reaction) with resulting data expressed as residual activity compared to control (DMSO), or using a serial (half-log) dilution of compounds starting at 10 μM and down to 0.3 nM (final concentrations in the assay) with data expressed as the pIC50.
as §1
(ADP-Glo first removes unused ATP, then detects ADP through luciferase.)

The target of test [3] is T1, EF2K. Description: EF2K cell-based assay (P-EF2 AlphaLISA, 2-deoxyglucose stimulated MCF10A cells). The following applies: 2.5 mM 2-deoxyglucose stimulated, P-EF2 Thr56, pIC50 = -log IC50 (M), read-out: eEF2K_C_PThr56 pIC50 (converted). As to the method: In this assay, 2.5 mM 2-deoxyglucose was used to deplete intracellular ATP and activate 5′ adenosine monophosphate-activated protein kinase (AMPK) in the immortalized epithelial breast cell lines, MCF10A. MCF 10A cells were purchased from ATCC (CRL-10317).
MCF10A cells are seeded at a density of 1.25×10^5 Cells/ml at 100 μl/well in a 96-well plate and incubated for 24 hours (37° C., 5% CO2). Compound is added for 1 hour, and cell are stimulated with 2.5 mM of 2-deoxy-glucose for 4 hours. Medium is then removed, and cells are lysed in an ice-cold buffer M-PER (Thermo Scientific, 78501), containing protease and phosphatase inhibitors. P-EF2 levels are determined in these lysates using the P-EF2 AlphaLISA described above.
as §1

Where [4] appears, read: single dose 1 μM compound, residual activity compared to control (DMSO).

Vps34 (PIK3C3 lipid kinase), sequence (Q8NEB9 whole entry, species assumed): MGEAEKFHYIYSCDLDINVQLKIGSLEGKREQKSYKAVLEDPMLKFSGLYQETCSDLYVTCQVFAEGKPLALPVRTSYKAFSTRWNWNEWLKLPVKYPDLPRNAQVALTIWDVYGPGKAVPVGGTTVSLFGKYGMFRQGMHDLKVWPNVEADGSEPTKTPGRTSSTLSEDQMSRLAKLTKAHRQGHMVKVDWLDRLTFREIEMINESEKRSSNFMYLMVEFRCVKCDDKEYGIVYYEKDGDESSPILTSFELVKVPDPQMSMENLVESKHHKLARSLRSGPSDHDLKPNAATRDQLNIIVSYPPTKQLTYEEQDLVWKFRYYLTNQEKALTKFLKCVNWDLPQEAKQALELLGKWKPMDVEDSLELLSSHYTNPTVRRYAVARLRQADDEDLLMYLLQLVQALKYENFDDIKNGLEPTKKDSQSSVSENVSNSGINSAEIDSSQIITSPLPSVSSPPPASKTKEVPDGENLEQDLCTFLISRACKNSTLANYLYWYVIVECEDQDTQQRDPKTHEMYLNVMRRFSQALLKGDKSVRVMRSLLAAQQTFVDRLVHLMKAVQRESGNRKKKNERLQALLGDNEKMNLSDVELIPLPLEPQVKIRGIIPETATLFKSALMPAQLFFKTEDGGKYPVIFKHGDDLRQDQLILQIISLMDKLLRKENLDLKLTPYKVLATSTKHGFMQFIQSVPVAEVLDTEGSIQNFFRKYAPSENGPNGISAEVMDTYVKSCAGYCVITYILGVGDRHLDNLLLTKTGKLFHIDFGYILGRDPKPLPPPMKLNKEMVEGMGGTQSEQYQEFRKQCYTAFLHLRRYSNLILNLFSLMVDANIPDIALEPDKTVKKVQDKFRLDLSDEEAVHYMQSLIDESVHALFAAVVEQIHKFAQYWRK

For the molecule `CNC(=O)c1ccc2cc1CN1CCN(CC1)CC(=O)N(C)CCCN(C)c1ccc(cn1)-c1ccnc(n1)N2` [Compound 12], the results for the IC50 (at EF2K [1]; in test [2]; on EF2K [3]) were 2.09e-07 M, 4.37e-07 M and 1.05e-05 M, respectively. The remaining activity at 1 µM in test [2] (setting [4]) came to 7.68%.
`CNC(=O)c1ccc2cc1CN1CCN(CC1)CC(=O)NCCCNc1ccc(cn1)-c1ccnc(n1)N2` [Compound 13]: the IC50 was 3.98e-07 M at EF2K [1], 8.71e-08 M in test [2] and 6.76e-06 M at EF2K [3]. In addition, the remaining activity at 1 µM in test [2] (setting [4]) turned out to be 9%.
Take `N#Cc1ccc2cc1CN1CCN(CC1)CC(=O)NCCCNc1ccc(cn1)-c1ccnc(n1)N2` [Compound 14]: the IC50 on EF2K [1] was 7.08e-08 M; in test [2] it was 1.05e-07 M; on EF2K [3], 7.59e-06 M. For the same molecule, the remaining activity at 1 µM in test [2] (setting [4]) stood at 3.37%.
The corresponding values for `NC(=O)c1ccc2cc1CN1CCN(CC1)CC(=O)NCCCNc1ccc(cn1)-c1ccnc(n1)N2` [Compound 15] are 6.03e-07 M, 5.01e-08 M, 2.75e-05 M and 1.07%.
Consider `O=C1CN2CCN(CC2)Cc2cc(ccc2C(=O)O)Nc2nccc(n2)-c2ccc(nc2)NCCCN1` [Compound 16], for which the figures for the IC50 (at EF2K [1]; in test [2]; on EF2K [3]) were 2.04e-06 M, 3.63e-07 M and > 3.02e-05 M, respectively. Moreover, the remaining activity at 1 µM in test [2] (setting [4]) is 15.9%.
For `CN(C)C(=O)c1ccc2cc1CN1CCN(CC1)CC(=O)N(C)CCCN(C)c1ccc(cn1)-c1ccnc(n1)N2` [Compound 17], the IC50 on EF2K [1] is 1.1e-06 M; on EF2K [3] it was > 3.02e-05 M. Moreover, in test [2] (setting [4]), the remaining activity at 1 µM was 39.5%.
As for `CN(C)C(=O)c1ccc2cc1CN1CCN(CC1)CC(=O)NCCCNc1ccc(cn1)-c1ccnc(n1)N2` [Compound 18], the IC50 on EF2K [1] is 1.91e-06 M; in test [2], 9.12e-07 M; at EF2K [3], > 3.02e-05 M. The remaining activity at 1 µM in test [2] (setting [4]) was 23.4%.
Take `Cc1c2cccc1Nc1nccc(n1)-c1ccc(nc1)NCCCNC(=O)CN1CCN(CC1)C2` [Compound 19]: the IC50 is ~1.58e-06 M on EF2K [1] and > 3.02e-05 M on EF2K [3]. Further, in test [2] (setting [4]), the remaining activity at 1 µM stood at 87.1%.
`CN1CCCCN(C)c2ccc(cn2)-c2ccnc(n2)Nc2cccc(c2)CN2CCN(CC2)CC1=O` [Compound 20]: the IC50 was 1.82e-06 M on EF2K [1], 1.62e-07 M in test [2] and > 3.02e-05 M on EF2K [3]. Besides, the remaining activity at 1 µM in test [2] (setting [4]) is 8.85%.
The corresponding values for `CC(C)N1CCNc2ccc(cn2)-c2ccnc(n2)Nc2cccc(c2)CN2CCN(CC2)CC1=O` [Compound 21] are 1.1e-06 M, 5.01e-07 M, 8.71e-06 M and 23.6%.
`CC(C)N1CCCNc2ccc(cn2)-c2ccnc(n2)Nc2cccc(c2)CN2CCN(CC2)CC1=O` [Compound 22]: the IC50 was 7.24e-06 M at EF2K [1], 6.17e-06 M in test [2] and > 3.02e-05 M at EF2K [3]. Also, the remaining activity at 1 µM in test [2] (setting [4]) worked out at 17.3%.
On the same counts, the results for `O=C1CN2CCN(CC2)Cc2cccc(c2)Nc2nccc(n2)-c2ccc(nc2)NCC(O)CN1` (stereo not shown) [Compound 23] are 5.01e-07 M, 1.51e-07 M, 2.24e-05 M and 7.45%.
As to `O=C1CN2CCN(CC2)Cc2cccc(c2)Nc2nccc(n2)-c2ccc(nc2)N2CCCC2CN1` (stereo not shown) [Compound 26], the IC50 on EF2K [1] was 1.48e-05 M; in test [2] it was 1.02e-07 M; at EF2K [3] it was > 3.02e-05 M. Besides, the VPS34_1microM_% of cntrl in test [2] (setting [4]) is 5.23 % of cntrl.
Consider `CN1CCCN(C)c2ccc(cn2)-c2ccnc(n2)Nc2cccc(c2)S(=O)(=O)N2CCN(CC2)CC1=O` [Compound 27], for which the IC50 was 2.95e-06 M on EF2K [1] and > 3.02e-05 M on EF2K [3]. Further, in test [2] (setting [4]), the remaining activity at 1 µM is 50.7%.
Regarding `CN1CCCN(C)c2ccc(cn2)-c2ccnc(n2)Nc2cccc(c2)C(=O)N2CCN(CC2)CC1=O` [Compound 28], the IC50 at EF2K [1] was ~5.5e-08 M; on EF2K [3], > 3.02e-05 M. Moreover, in test [2] (setting [4]), the remaining activity at 1 µM was found to be 45.6%.
Consider `CN1CCCN(C)c2ccc(cn2)-c2ccnc(n2)Nc2cccc(c2)CCN2CCN(CC2)CC1=O` [Compound 29], for which the IC50 was 1.74e-05 M on EF2K [1], 2e-07 M in test [2] and > 3.02e-05 M at EF2K [3]. Besides, the remaining activity at 1 µM in test [2] (setting [4]) stood at 5.67%.
On the same counts, the results for `O=C1CN2CCN(CC2)Cc2cccc(c2)Nc2nccc(n2)-c2ccc(nc2)NCCCN1` [Compound 31] are 1.07e-07 M, 8.71e-08 M, ~3.98e-06 M and 8.47%.
Regarding `CN1CCCN(C)c2ccc(cn2)-c2ccnc(n2)Nc2ccnc(c2)CN2CCN(CC2)CC1=O` [Compound 32], the IC50 at EF2K [1] is 1.17e-07 M; in test [2], 1.45e-07 M; at EF2K [3] it was 5.13e-06 M. Further, the remaining activity at 1 µM in test [2] (setting [4]) was determined as 11.1%.
As for `CN1CCCN(C)c2ccc(cn2)-c2ccnc(n2)Nc2cncc(c2)CN2CCN(CC2)CC1=O` [Compound 33], the IC50 at EF2K [1] was 6.61e-07 M; in test [2] it was 7.41e-07 M; on EF2K [3], 2.14e-05 M. Besides, the remaining activity at 1 µM in test [2] (setting [4]) is 23.9%.
`O=C1CN2CCN(CC2)Cc2cccc(c2)Nc2nccc(n2)-c2ccc(nc2)CNCCN1` [Compound 34]: the IC50 was 5.25e-07 M at EF2K [1], 8.32e-07 M in test [2] and ~7.24e-06 M on EF2K [3].
As to `O=C1CN2CCN(CC2)Cc2cccc(c2)Nc2nccc(n2)-c2ccc(nc2)CN(CC2CC2)CCN1` [Compound 35], the IC50 on EF2K [1] is 9.33e-09 M; in test [2], 7.76e-08 M; at EF2K [3], 1.32e-07 M.
`C#CCN1CCNC(=O)CN2CCN(CC2)Cc2cccc(c2)Nc2nccc(n2)-c2ccc(nc2)C1` [Compound 36]: the figures for the IC50 (at EF2K [1]; in test [2]; at EF2K [3]) were 4.37e-08 M, 3.39e-07 M and 1.32e-06 M, respectively. Moreover, the remaining activity at 1 µM in test [2] (setting [4]) came out at 16%.
With `C=CCCN1CCNC(=O)CN2CCN(CC2)Cc2cccc(c2)Nc2nccc(n2)-c2ccc(nc2)C1` [Compound 37], the IC50 on EF2K [1] is 7.59e-09 M; in test [2] it was 9.55e-08 M; at EF2K [3], 1.82e-07 M.
